Holding throughout (assay type): cell-based
One assay deals with T1, CaV3.2 (Homo sapiens, UniProt O95180).
T1 construct: expressed in transfected cells; host or cells: unnamed doxycycline-inducible cell line
Briefly: High-throughput CaV3.2/Kir2.3 T-type FLIPR fluorescent assay. The note with it: Fluo-4 FLIPR, closed or inactivated state not stated. How it is done:
Cells were plated in 384-well, clear-bottom, black-walled, poly-D-lysine coated plates (Becton Dickinson, Franklin Lake, N.J.) 2 days prior to use in the FLIPR assay. 100 µL of cells (1.2×10^6 cell/mL) containing doxycyline (Sigma-Aldrich, 1.5 μg/mL; to induce channel expression) were added to each well using a Multidrop (Thermo Scientific, Waltham, Mass.) and were maintained in 5% CO2 incubator at 37° C. On the morning of the assay, cells were transferred to a 5% CO2 incubator at 29° C.
Cells were washed with a wash buffer containing (in mM): 118 NaCl, 18.4 HEPES, 11.7 D-glucose, 2 CaCl2, 0.5 MgSO4, 4.7 KCl, and 1.2 KH2PO4, with the pH adjusted to 7.2 with
NaOH. 4.4 μM of the fluorescent indicator dye Fluo-4 (Invitrogen) prepared in pluronic acid (Sigma-Aldrich) was loaded into the wells and incubated for 45 minutes at 29° C. in 5% CO2. Cells were then rinsed with either a 2 mM KCl closed-state buffer (in mM: 138.5 NaCl, 10 HEPES, 10 D-glucose, 1 CaCl2, and 2 KCl, with the pH adjusted to 7.4 with NaOH) when performing the closed-state assay or 7.6 mM KCl inactivated-state buffer (in mM: 130.9 NaCl, 10 HEPES, 10 D-glucose, 1 CaCl2, and 7.6 mM KCl, with the pH adjusted to 7.4 with NaOH) when performing the inactivated-state assay. Concentration-dependent response curves were generated from 5 mM stock solutions prepared in DMSO (Sigma-Aldrich), diluted in either the 2 mM KCl buffer or 7.6 mM KCl buffer, and incubated for 20 minutes at 29° C. in 5% CO2. Calcium entry was evoked with an addition of either 12 mM KCl stimulation buffer (in mM: 128.5 NaCl, 10 HEPES, 10 D-glucose, 1 CaCl2, and 12 KCl, with the pH adjusted to 7.4 with NaOH) or 14.5 mM KCl stimulation buffer (in mM: 126 NaCl, 10 HEPES, 10 D-glucose, 1 CaCl2, and 14.5 KCl, with the pH adjusted to 7.4 with NaOH) for the closed-state or inactivated-state assay respectively. A change in the Fluo-4 fluorescence signal was assessed using FLIPR^TETRA™ instrument (Molecular Devices, Sunnyvale, Calif.) for 3 minutes following the elevation of extracellular KCl using an illumination wavelength of 470-495 nm with emissions recorded at 515-575 nm.
(§1) Concentration-dependent response curves were obtained by comparing the fluorescence signal in the presence of compound and fitted with a logistic function (1) to obtain the concentration that inhibited 50% (IC50) of the RLU signal using OriginPro v.7.5 software (OriginLab, Northampton, Mass.).
(§2) To assess the quality of the FLIPR assays the Z-factor (2) was used to quantify the suitability of the assay conditions using the following equation: […]
(§3) Data are expressed as mean and standard deviation (SD).

The next assay concerns the target T2, CaV2.2 (Homo sapiens, UniProt Q00975).
T2 construct: expressed in transfected cells; host or cells: unnamed doxycycline-inducible cell line
The assay is described as follows: High-throughput CaV2.2/Kir2.3 FLIPR fluorescent assay. The note with it: Fluo-4 FLIPR, closed or inactivated state not stated, read-out: FLIPR data CaV2.2. The procedure, abridged: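 IC50 was derived by logistic fitting of the FLIPR Fluo-4 signal recorded over 3 min after a 130 mM KCl stimulus. Before stimulation, cells (channel expression induced with doxycycline, 29 °C on assay day) were kept in pH 7.4 buffer with 2 mM KCl for the closed-state format or 12.5 mM KCl for the inactivated-state format.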

A further assay addresses T3, CaV3.1 (Homo sapiens, UniProt O43497).
T3 construct: expressed in transfected cells; host or cells: unnamed doxycycline-inducible cell line
Briefly: High-throughput CaV3.1 T-type FLIPR fluorescent assay. The note with it: Fluo-4 FLIPR. How it is done: Cells were plated in 384-well, clear-bottom, black-walled, poly-D-lysine coated plates (Becton Dickinson, Franklin Lake, N.J.) 2 days prior to use in the FLIPR assay. 100 μL of cells (2.0×10^6 cell/mL) containing doxycyline (Sigma-Aldrich, 1.5 μg/mL; to induce channel expression) were added to each well using a Multidrop (Thermo Scientific, Waltham, Mass.) and were maintained in 5% CO2 incubator at 37° C. On the morning of the assay, cells were transferred to a 5% CO2 incubator at 29° C.
Cells were washed with a wash buffer containing (in mM): 118 NaCl, 18.4 HEPES, 11.7 D-glucose, 0.05 CaCl2, 0.5 MgSO4, 1 KCl, and 1.2 KH2PO4, with the pH adjusted to 7.2 with NaOH. 4.4 μM of the fluorescent indicator dye, Fluo-4 (Invitrogen), prepared in pluronic acid
(Sigma-Aldrich), was loaded into the wells and incubated for 45 minutes at 29° C. in 5% CO2. Cells were then rinsed with the following low Ca^2+ buffer (in mM): 0.34 Na2HPO4, 4.2 NaHCO3, 0.44 KH2PO4, 0.41 MgSO4, 0.49 MgCl2-6H2O, 20 HEPES, 5.5 D-Glucose, 137 NaCl, 5.3 KCl, and 0.001 CaCl2, with 0.1% BSA and the pH adjusted to 7.2 with NaOH. Concentration-dependent response curves were generated from 5 mM stock solutions prepared in DMSO (Sigma-Aldrich) and diluted in the buffer containing low Ca^2+ and incubated for 20 minutes at 29° C. in 5% CO2. Calcium entry was evoked with an addition of (in mM): 0.34 Na2HPO4, 4.2 NaHCO3, 0.44 KH2PO4, 0.41 MgSO4, 0.49 MgCl2-6H2O, 20 HEPES, 5.5 D-Glucose, 137 NaCl, 5.3 KCl, and 6 CaCl2, with 0.1% BSA and the pH adjusted to 7.2 with NaOH. A change in the Fluo-4 fluorescence signal was assessed using FLIPR^TETRA™ instrument (Molecular Devices, Sunnyvale, Calif.) for 3 minutes following the elevation of extracellular KCl using an illumination wavelength of 470-495 nm with emissions recorded at 515-575 nm.
as §1, §2, §3

Where two headings read alike, the source gives them in different places.

T1 sequence (O95180 whole entry): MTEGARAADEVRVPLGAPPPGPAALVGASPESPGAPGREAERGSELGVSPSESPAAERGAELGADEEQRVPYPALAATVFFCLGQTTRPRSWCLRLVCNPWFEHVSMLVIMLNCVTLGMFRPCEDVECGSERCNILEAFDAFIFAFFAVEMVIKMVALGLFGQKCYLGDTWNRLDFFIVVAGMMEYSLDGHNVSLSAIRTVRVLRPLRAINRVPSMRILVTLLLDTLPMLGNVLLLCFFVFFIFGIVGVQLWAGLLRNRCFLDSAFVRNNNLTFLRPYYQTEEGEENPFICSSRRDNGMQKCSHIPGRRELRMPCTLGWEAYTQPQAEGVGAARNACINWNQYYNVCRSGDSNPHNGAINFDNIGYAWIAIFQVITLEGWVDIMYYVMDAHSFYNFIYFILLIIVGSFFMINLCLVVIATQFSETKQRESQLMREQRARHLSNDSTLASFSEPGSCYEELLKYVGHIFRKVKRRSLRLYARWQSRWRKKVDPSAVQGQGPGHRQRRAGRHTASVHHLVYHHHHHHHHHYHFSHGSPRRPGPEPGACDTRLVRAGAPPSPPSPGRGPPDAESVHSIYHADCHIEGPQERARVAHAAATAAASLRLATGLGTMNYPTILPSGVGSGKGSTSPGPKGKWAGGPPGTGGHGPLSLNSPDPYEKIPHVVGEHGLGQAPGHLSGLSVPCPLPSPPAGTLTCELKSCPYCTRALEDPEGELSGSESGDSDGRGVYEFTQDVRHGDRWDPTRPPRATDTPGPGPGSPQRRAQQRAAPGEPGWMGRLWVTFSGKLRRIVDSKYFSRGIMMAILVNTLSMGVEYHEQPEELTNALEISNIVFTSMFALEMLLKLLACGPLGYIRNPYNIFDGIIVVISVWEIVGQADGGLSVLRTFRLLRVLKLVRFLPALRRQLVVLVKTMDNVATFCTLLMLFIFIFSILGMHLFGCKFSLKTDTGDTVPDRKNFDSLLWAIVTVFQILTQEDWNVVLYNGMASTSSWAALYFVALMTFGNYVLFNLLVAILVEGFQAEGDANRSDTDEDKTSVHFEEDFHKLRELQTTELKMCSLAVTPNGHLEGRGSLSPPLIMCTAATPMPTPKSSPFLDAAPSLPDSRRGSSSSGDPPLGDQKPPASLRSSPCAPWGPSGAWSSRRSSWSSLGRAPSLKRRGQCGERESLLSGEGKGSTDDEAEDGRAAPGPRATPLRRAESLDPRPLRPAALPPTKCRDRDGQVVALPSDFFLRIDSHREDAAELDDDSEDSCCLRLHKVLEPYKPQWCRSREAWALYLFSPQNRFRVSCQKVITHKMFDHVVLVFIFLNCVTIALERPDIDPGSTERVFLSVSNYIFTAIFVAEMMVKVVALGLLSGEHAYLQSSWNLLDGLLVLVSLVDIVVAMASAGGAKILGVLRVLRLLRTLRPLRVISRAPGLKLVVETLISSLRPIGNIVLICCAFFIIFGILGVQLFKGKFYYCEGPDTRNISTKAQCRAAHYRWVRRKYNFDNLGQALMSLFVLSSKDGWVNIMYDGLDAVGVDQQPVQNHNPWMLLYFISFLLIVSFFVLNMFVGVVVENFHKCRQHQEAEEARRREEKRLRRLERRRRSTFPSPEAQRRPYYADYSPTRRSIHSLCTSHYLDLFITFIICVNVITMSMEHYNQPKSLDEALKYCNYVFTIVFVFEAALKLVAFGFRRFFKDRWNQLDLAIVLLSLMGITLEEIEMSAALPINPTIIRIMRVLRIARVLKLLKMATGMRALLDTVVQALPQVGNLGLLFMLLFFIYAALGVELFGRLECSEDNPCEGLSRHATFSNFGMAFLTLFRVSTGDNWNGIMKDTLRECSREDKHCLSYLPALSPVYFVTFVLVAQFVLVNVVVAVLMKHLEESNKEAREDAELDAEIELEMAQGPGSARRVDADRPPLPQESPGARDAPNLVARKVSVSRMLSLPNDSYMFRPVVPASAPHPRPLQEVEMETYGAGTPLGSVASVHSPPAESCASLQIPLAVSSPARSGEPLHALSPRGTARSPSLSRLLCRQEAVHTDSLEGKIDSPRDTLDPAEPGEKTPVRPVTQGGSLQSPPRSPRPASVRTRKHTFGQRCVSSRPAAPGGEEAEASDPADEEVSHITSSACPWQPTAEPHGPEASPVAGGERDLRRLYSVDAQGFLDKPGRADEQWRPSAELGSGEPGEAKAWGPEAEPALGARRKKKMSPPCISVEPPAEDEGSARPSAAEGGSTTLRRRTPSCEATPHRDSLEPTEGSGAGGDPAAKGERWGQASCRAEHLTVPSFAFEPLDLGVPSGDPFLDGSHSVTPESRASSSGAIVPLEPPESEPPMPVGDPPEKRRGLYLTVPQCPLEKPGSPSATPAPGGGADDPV
T3 sequence (O43497 whole entry): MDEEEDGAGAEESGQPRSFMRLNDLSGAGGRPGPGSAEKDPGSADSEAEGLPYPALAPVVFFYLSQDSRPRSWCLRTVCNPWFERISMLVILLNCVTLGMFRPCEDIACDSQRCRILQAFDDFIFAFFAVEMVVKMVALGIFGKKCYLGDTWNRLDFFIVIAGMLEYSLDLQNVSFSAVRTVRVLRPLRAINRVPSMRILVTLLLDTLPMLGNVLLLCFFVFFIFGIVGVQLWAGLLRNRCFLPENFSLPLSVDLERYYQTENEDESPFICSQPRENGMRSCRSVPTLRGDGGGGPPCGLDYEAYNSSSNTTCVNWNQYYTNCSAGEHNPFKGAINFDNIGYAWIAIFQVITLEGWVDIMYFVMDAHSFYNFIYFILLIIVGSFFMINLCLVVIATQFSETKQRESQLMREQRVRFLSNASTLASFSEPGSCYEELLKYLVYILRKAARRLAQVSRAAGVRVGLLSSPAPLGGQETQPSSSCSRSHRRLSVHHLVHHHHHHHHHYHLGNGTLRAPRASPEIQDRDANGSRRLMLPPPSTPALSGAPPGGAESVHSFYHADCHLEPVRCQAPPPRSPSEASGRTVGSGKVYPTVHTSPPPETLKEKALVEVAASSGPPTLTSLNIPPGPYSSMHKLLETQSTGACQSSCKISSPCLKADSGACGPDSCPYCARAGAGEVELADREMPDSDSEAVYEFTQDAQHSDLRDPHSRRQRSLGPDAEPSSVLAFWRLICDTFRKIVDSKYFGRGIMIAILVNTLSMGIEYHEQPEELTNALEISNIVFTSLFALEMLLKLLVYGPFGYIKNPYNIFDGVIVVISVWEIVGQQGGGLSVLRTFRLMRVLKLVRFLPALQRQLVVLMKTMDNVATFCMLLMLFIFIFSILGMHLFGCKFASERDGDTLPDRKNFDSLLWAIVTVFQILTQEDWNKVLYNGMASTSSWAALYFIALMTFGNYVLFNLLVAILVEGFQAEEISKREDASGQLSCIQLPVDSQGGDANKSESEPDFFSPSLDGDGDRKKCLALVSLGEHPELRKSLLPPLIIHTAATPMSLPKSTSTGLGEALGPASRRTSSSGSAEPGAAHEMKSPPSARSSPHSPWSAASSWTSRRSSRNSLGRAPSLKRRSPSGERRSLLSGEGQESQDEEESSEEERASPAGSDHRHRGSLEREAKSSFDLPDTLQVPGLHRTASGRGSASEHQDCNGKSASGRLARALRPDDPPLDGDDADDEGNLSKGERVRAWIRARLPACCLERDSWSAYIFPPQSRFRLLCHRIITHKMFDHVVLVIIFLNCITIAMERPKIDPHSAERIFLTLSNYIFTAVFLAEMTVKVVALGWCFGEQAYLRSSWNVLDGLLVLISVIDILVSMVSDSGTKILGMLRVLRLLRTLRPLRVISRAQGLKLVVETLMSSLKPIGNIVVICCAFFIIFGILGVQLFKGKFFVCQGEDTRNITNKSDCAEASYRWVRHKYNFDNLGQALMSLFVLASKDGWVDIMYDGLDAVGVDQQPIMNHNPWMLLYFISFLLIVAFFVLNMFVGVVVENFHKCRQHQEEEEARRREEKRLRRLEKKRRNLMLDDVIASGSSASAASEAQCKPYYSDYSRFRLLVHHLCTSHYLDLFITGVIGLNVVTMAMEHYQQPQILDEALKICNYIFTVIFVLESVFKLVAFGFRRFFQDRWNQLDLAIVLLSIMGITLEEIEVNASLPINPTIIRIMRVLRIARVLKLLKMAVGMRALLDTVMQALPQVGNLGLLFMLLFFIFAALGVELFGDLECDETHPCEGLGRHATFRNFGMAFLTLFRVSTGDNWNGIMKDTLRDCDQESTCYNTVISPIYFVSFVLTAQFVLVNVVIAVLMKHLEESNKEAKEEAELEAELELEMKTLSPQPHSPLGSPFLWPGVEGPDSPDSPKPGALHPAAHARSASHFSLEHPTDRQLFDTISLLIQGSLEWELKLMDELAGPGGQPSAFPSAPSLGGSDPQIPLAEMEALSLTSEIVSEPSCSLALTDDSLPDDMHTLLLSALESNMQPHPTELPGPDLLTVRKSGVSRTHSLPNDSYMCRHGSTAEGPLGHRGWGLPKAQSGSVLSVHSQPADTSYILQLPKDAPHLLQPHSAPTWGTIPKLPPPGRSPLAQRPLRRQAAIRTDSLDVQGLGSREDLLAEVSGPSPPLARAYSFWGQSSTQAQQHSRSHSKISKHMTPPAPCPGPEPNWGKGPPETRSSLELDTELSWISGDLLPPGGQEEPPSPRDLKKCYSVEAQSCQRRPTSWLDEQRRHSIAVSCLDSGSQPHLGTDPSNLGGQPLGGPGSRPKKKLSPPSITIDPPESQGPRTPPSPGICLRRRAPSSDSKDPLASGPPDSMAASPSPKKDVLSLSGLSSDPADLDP

For the compound `CC(C)(C(=O)N1CCC(c2cccc(Cl)c2)CC1)S(=O)(=O)c1cccc(C(F)(F)F)c1` [Compound 133, 1-(4-(3-chlorophenyl)piperidin-1-yl)-2-methyl-2-((3-(trifluoromethyl)phenyl)sulfonyl)propan-1-one], the IC50 against CaV3.2 (Table 5) worked out at 4960 nM; on CaV2.2 (Table 5), 1160 nM; on CaV3.1 (Table 5) it was 2160 nM.

For the compound `CS(=O)(=O)c1cc(C(F)(F)F)ccc1C(=O)NCc1ccccc1S(=O)(=O)c1cccc(C(F)(F)F)c1` [Compound 47, 2-(methylsulfonyl)-4-(trifluoromethyl)-N-(2-((3-(trifluoromethyl)phenyl)sulfonyl)benzyl)benzamide], the IC50 against CaV3.2 (Table 4) amounted to 2130 nM; at CaV2.2 (Table 4), 590 nM; at CaV3.1 (Table 4) it was 270 nM.

In the case of `O=C(NCc1ccc(S(=O)(=O)c2cccc(C(F)(F)F)c2)cc1)c1ccnn1CC(F)(F)F` [Compound 12, 1-(2,2,2-trifluoroethyl)-N-(4-((3-(trifluoromethyl)phenyl)sulfonyl)benzyl)-1H-pyrazole-5-carboxamide], the IC50 against CaV3.2 (Table 4) came to 590 nM; on CaV2.2 (Table 4), 630 nM; at CaV3.1 (Table 4) it was 2290 nM.

On to `O=C(NCc1ccc(S(=O)(=O)c2cccc(C(F)(F)F)c2)cc1)c1ccc(C(F)(F)F)cn1` [Compound 4, 5-(trifluoromethy)-N-(4-((3-(trifluoromethyl)phenyl)sulfonyl)benzyl)picolinamide], for which the IC50 against CaV3.2 (Table 4) stood at 380 nM; on CaV2.2 (Table 4), 450 nM; at CaV3.1 (Table 4) it was 1480 nM.

On to `O=C(NCc1cccc(S(=O)(=O)c2cccc(C(F)(F)F)c2)c1)c1cc(F)cc(Cl)c1` [Compound 18, 3-chloro-5-fluoro-N-(3-((3-(trifluoromethyl)phenyl)sulfonyl)benzyl)benzamide], for which the values for the IC50 against CaV3.2 (Table 4), at CaV2.2 (Table 4) and on CaV3.1 (Table 4) were 840 nM, 220 nM and 1570 nM, respectively.

Consider `O=C(NCc1cccc(S(=O)(=O)c2cccc(C(F)(F)F)c2)c1)c1ccc(C(F)(F)F)cn1` [Compound 20, 5-(trifluoromethyl)-N-(3-((3-(trifluoromethyl)phenyl)sulfonyl)benzyl)picolinamide], for which the IC50 on CaV3.2 (Table 4) worked out at 930 nM; on CaV2.2 (Table 4), 230 nM; at CaV3.1 (Table 4), 1810 nM.

With `CS(=O)(=O)c1cc(C(=O)NCc2cccc(S(=O)(=O)c3cccc(C(F)(F)F)c3)c2)cc(C(F)(F)F)n1` [Compound 23, 2-(methylsulfonyl)-6-(trifluoromethyl)-N-(3-((3-(trifluoromethyl)phenyl)sulfonyl)benzyl)isonicotinamide], the IC50 at CaV3.2 (Table 4) was found to be 570 nM; on CaV2.2 (Table 4), 490 nM; on CaV3.1 (Table 4), 2050 nM.

Consider `CS(=O)(=O)c1cc(C(=O)NCc2ccc(S(=O)(=O)c3cccc(C(F)(F)F)c3)cc2)cc(C(F)(F)F)n1` [Compound 10, 2-(methylsulfonyl)-6-(trifluoromethyl)-N-(4-((3-(trifluoromethyl)phenyl)sulfonyl)benzyl)isonicotinamide], for which the values for the IC50 against CaV3.2 (Table 4), at CaV2.2 (Table 4) and on CaV3.1 (Table 4) were 980 nM, 690 nM and 1970 nM, respectively.

With `CN(CCc1c[nH]c2ccc(F)cc12)C(=O)C(C)(C)S(=O)(=O)c1cccc(C(F)(F)F)c1` [Compound 135, N-(2-(5-fluoro-1H-indol-3-yl)ethyl)-N,2-dimethyl-2-((3-(trifluoromethyl)phenyl)sulfonyl)propanamide], the IC50 was 5840 nM against CaV3.2 (Table 5), 1290 nM at CaV2.2 (Table 5) and 7950 nM against CaV3.1 (Table 5).

Regarding `CC(C)(C(=O)NCc1ccc(S(=O)(=O)c2cccc(C(F)(F)F)c2)cc1)S(=O)(=O)c1cccc(C(F)(F)F)c1` [Compound 225, 2-methyl-2-((3-(trifluoromethyl)phenyl)sulfonyl)-N-(4-((3-(trifluoromethyl)phenyl)sulfonyl)benzyl)propanamide], the IC50 against CaV3.2 (Table 5) was found to be 630 nM; at CaV2.2 (Table 5), 100 nM; against CaV3.1 (Table 5), 1410 nM.

In the case of `CS(=O)(=O)c1cc(C(F)(F)F)cnc1C(=O)NCc1ccc(S(=O)(=O)c2cccc(C(F)(F)F)c2)cc1` [Compound 5, 3-(methylsulfonyl)-5-(trifluoromethyl)-N-(4-((3-(trifluoromethyl)phenyl)sulfonyl)benzyl)picolinamide], the IC50 at CaV3.2 (Table 4) worked out at 2370 nM; on CaV2.2 (Table 4), 470 nM; at CaV3.1 (Table 4) it was 1350 nM.

As for `O=C(NCc1ccccc1S(=O)(=O)c1cccc(C(F)(F)F)c1)c1ccc(F)c(Cl)c1` [Compound 52, 3-chloro-4-fluoro-N-(2-((3-(trifluoromethyl)phenyl)sulfonyl)benzyl)benzamide], the IC50 was found to be 1300 nM at CaV3.2 (Table 4), 740 nM on CaV2.2 (Table 4) and 680 nM against CaV3.1 (Table 4).

On to `CC(C)(C(=O)Nc1ccc(Oc2ccc(C(F)(F)F)nc2)nc1)S(=O)(=O)c1cccc(OC(F)(F)F)c1` [Compound 122, 2-methyl-2-((3-(trifluoromethoxy)phenyl)sulfonyl)-N-(6-((6-(trifluoromethyl)pyridin-3-yl)oxy)pyridin-3-yl)propanamide], for which the IC50 on CaV3.2 (Table 5) turned out to be 1640 nM; on CaV2.2 (Table 5), 700 nM; against CaV3.1 (Table 5) it was 4890 nM.

As for `Cn1nc(C(F)(F)F)cc1C(=O)NCc1ccc(S(=O)(=O)c2cccc(C(F)(F)F)c2)cc1` [Compound 7, 1-methyl-3-(trifluoromethyl)-N-(4-((3-(trifluoromethyl)phenyl)sulfonyl)benzyl)-1H-pyrazole-5-carboxamide], the values for the IC50 against CaV3.2 (Table 4), at CaV2.2 (Table 4) and against CaV3.1 (Table 4) were 510 nM, 390 nM and 1330 nM, respectively.

Turning to `CC(C)(C(=O)NCc1ccc(S(=O)(=O)c2cccc(C(F)(F)F)c2)cn1)S(=O)(=O)c1cccc(C(F)(F)F)c1` [Compound 87, 2-methyl-2-((3-(trifluoromethyl)phenyl)sulfonyl)-N-((5-((3-(trifluoromethyl)phenyl)sulfonyl)pyridin-2-yl)methyl)propanamide], the IC50 on CaV3.2 (Table 4) stood at 1260 nM; on CaV2.2 (Table 4), 170 nM; on CaV3.1 (Table 4), 1690 nM.
